Data reported in patent US9963467B2, “Boronic acid derivatives and therapeutic uses thereof” (Rempex Pharmaceuticals, Inc., priority 2014, dated 2018).

Columns and labels:
ec302 (TEM-10) [1] = test: Aztreonam potentiation (MPC@4), ec302; format: cell-based; details: BLI with aztreonam at 4 μg/mL
ECL1002 [2] = test: Aztreonam potentiation (MPC@4), ECL1002; format: cell-based; details: BLI with aztreonam at 4 μg/mL
EC1010 (CMY-6) [3] = test: organism not typed; format: cell-based
KP1005 (CTX-M-14) = test: Tigemonam potentiation (MPC@4), KP1005; format: cell-based; details: BLI with tigemonam at 4 μg/mL
KP1009 (CTX-M-15) = test: Tigemonam potentiation (MPC@4), KP1009; format: cell-based; details: BLI with tigemonam at 4 μg/mL
ec308 (SHV-5) = test: Tigemonam potentiation (MPC@4), ec308; format: cell-based
KP1010 (SHV-12) = test: Tigemonam potentiation (MPC@4), KP1010; format: cell-based
ec302 (TEM-10) [4] = test: Tigemonam potentiation (MPC@4), ec302; format: cell-based
ECL1002 [5] = test: Tigemonam potentiation (MPC@4), ECL1002; format: cell-based; details: BLI with tigemonam at 4 μg/mL
EC1010 (CMY-6) [6] = test: Tigemonam potentiation (MPC@4), EC1010; format: cell-based; details: BLI with tigemonam at 4 μg/mL
CTX-M-14 = CTX-M-14 (Escherichia coli, UniProt Q9L5C7); test: Ki, nitrocefin cleavage by purified enzyme, CTX-M-14; format: biochemical; details: nitrocefin reporter substrate; read-out: Ki (CTX-M-14, NCF)
Chain of CTX-M-14 (Q9L5C7 29-291): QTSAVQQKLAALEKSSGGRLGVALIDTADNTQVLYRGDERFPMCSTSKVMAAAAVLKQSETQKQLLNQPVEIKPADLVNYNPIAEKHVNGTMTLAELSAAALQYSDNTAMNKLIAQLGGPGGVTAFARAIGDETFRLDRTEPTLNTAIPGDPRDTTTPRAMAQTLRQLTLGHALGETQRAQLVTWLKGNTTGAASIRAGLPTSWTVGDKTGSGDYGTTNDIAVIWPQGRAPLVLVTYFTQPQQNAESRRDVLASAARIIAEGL
Protocol: (§1) Purified enzymes were mixed with various concentrations of inhibitors in reaction buffer and incubated for 10 min at room temperature. Nitrocefin was added and substrate cleavage profiles were recorded at 490 nm every 10 sec for 10 min.

SHV-12 = SHV-12 (Klebsiella pneumoniae, UniProt P0AD64, E235K/G234S/L31Q); test: Ki, nitrocefin cleavage by purified enzyme, SHV-12; format: biochemical; details: nitrocefin reporter substrate; read-out: Ki (SHV-12, NCF)
Chain of SHV-12 (P0AD64 22-286 L31Q/G234S/E235K): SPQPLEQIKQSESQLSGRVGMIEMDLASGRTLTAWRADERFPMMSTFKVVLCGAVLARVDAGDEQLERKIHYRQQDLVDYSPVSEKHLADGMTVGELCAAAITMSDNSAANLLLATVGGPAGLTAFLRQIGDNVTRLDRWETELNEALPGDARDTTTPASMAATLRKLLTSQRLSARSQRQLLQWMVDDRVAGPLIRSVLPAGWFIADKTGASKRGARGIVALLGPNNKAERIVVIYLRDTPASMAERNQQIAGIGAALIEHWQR
Protocol: as §1

KPC-2 = KPC-2 (Klebsiella pneumoniae, UniProt Q9F663); test: Ki, nitrocefin cleavage by purified enzyme, KPC-2; format: biochemical; details: nitrocefin reporter substrate; read-out: Ki (KPC-2, NCF)
Chain of KPC-2 (Q9F663 25-293, looked up, species assumed): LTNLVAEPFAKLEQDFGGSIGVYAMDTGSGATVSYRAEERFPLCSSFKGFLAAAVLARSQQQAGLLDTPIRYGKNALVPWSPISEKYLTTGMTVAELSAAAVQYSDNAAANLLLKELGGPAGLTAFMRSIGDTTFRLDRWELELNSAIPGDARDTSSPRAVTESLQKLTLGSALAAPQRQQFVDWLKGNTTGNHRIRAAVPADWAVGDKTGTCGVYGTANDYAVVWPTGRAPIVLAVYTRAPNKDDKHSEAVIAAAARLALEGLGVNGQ
Protocol: as §1

P99 = P99 (Enterobacter cloacae, UniProt P05364); test: Ki, nitrocefin cleavage by purified enzyme, P99; format: biochemical; details: nitrocefin reporter substrate; read-out: Ki (P99, NCF)
Chain of P99 (P05364 21-381): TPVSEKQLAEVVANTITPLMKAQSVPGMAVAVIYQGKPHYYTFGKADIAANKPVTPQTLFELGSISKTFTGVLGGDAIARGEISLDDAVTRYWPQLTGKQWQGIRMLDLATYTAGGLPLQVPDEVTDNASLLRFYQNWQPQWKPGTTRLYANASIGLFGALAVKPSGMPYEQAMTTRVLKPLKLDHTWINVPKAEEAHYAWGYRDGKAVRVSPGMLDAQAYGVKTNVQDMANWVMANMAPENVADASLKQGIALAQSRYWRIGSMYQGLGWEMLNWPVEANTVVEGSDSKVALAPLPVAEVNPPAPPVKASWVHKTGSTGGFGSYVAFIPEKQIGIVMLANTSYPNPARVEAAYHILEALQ
Protocol: as §1

OXA-48 = OXA-48 (Klebsiella pneumoniae, UniProt Q6XEC0); test: Ki, nitrocefin cleavage by purified enzyme, OXA-48; format: biochemical; details: nitrocefin reporter substrate; read-out: Ki (OXA-48, NCF)
Chain of OXA-48 (Q6XEC0 23-265, looked up, species assumed): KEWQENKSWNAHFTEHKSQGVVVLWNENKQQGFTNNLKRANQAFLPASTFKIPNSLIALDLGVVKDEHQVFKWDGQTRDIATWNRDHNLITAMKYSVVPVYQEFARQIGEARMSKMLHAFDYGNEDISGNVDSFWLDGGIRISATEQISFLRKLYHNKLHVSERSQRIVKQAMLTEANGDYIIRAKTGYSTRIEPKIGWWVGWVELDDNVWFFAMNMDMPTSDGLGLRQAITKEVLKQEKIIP
Protocol: as §1

[7] = Monomer content of pH adjusted aqueous solutions (LC-UV); format: physicochemical; details: 1 mg/mL aqueous salt solution, pH adjusted to 7.6 to 8, LC-UV
Protocol: Boronic acid containing compounds are known to undergo oligomerization. The presence of oligomers can greatly complicate drug development, as they represent new chemical species whose content must be controlled and qualified by testing in toxoicology studies. The monomer content of compounds was evaluated by adjusting aqueous solutions to physiological pH at various concentrations. The monomer content of pH adjusted solutions was measured using LC-UV. Test compounds were weighed out into a 1.5 mL Eppendorf tube. A solution of water was prepared in 1.00 mg/mL, 10.0 mg/mL or 100 mg/mL concentrations of the compound based on active fraction. A volume 20 uL was subtracted to allow room for addition of acid or base to adjust pH. The solution pH was measured. The pH was then adjusted through addition of acid or base as necessary until the reading was in the 7.6 to 8 range. A final pH measurement was made after ensuring all the compound was in solution. The solution was injected onto LC-UV in 0.1 uL to 5 uL volume within less than half an hour after the time the sample was prepared. Elution was done using 0.1% TFA in water for mobile phase A and 0.085% TFA in methanol for mobile phase B on an Excel ACE 5 Super C18 2.1×100 mm column at 0.6 ml/min flow rate with 9 min gradient, 3.9 minute hold at 90% B and 18 minute run time. The absorption was measured at 220, 254 and 300 nm with a 4 nm bandwidth.

KP1004 (KPC-2) = test: Biapenem potentiation (MPC@1), KP1004; details: BLI with biapenem at 1 μg/mL
KP1086 (OXA-48) = test: Biapenem potentiation (MPC@1), KP1086; details: BLI with biapenem at 1 μg/mL
Pa AmpC = Pa AmpC (Pseudomonas aeruginosa, UniProt P24735); test: Ki, nitrocefin cleavage by purified enzyme, Pa AmpC; format: biochemical; details: nitrocefin reporter substrate; read-out: Ki (Pa AmpC, NCF)
Chain of Pa AmpC (P24735 27-397): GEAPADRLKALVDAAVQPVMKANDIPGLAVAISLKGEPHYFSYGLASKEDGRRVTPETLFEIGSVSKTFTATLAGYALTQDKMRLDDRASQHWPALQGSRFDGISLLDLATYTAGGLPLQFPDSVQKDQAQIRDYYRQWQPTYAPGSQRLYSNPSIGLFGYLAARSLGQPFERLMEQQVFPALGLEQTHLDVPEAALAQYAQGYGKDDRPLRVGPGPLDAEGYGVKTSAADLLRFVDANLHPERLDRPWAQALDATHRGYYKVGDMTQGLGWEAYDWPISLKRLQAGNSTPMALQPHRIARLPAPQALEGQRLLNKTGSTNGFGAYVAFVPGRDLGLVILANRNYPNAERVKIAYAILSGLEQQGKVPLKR
Protocol: Ki values of inhibition of purified class A, C and D enzymes were determined spectrophotometrically using nitrocefin as reporter substrate. Purified enzymes were mixed with various concentrations of inhibitors in reaction buffer and incubated for 10 min at room temperature. Nitrocefin was added and substrate cleavage profiles were recorded at 490 nm every 10 sec for 10 min. These experiments confirmed that the described compounds are inhibitors with a broad-spectrum of activity towards various β-lactamases.

[8] = Serum stability of prodrugs, human serum; format: in vitro ADME; details: human serum; prodrug; theoretical initial conc. 20 ug/mL
Protocol: (§2) Prodrug strategy is one of the ways to achieve or increase oral bioavailability for therapeutic drugs. […] After a prodrug molecule is absorbed into systemic circulation, it should be hydrolyzed in the blood in order to release the active form. Hydrolysis of several prodrugs by rat and human serum were evaluated.
(§3) For all stability experiments the test compounds were treated with rat or human serum in Eppendorf tubes. Typically, 992 μl of serum was prewarmed at 37 degrees for 2 minutes and then 8 μl of a compound (at 5 mg/ml, 125×) was added to it to get a final concentration of […] and immediately mixed. Alternatively, serum stability might be tested at 1 mg/ml. […] After vortexing for 30 seconds, the tube was centrifuged in a microcentrifuge for 10 minutes at 15K rpm. Next, 100 μl of the supernatant was combined with 600 μl of water and injected on LC-MS using 0.1% formic acid in water for mobile phase A and 0.1% formic acid in methanol for mobile phase B on an ACE 5 C18 2.1×100 mm column with a 10 μL injection. The flow rate and gradient were adjusted as needed to give the desired resolution and run time. The pH of the mobile phase was adjusted if needed to improve the chromatography.
(§4) The time course of both the disappearance of a prodrug and the appearance of the active form of that prodrug is presented in Table 6 and Table 7. The active metabolites for all of the listed prodrugs are corresponding parent drugs

[9] = Serum stability of prodrugs, rat serum; format: in vitro ADME; details: theoretical initial conc. 20 ug/mL
Protocol: as §2, §3, §4

[10] = Serum stability of prodrugs, human serum; format: in vitro ADME; details: theoretical initial conc. 20 ug/mL

With `CSCC(=O)N[C@H]1Cc2ccc(SC)c(C(=O)O)c2OB1O` [Compound 10, (R)-2-hydroxy-7-(methylthio)-3-(2-(methylthio)acetamido)-3,4-dihydro-2H-benzo[e][1,2]oxaborinine-8-carboxylic acid] the “AZT MPC4 TEM-10 ec302” value (ec302 (TEM-10) [1]) was “Y (MIC of 1 μg/mL to 10 μg/mL)”, the “AZT MPC4 ECL1002” value (ECL1002 [2]) was “Y (MIC of 1 μg/mL to 10 μg/mL)” and the “AZT MPC4 CMY-6 EC1010” value (EC1010 (CMY-6) [3]) was “Y (key: X: MIC of less than 1 ng/mL; Y: MIC of 1 μg/mL to 10 μg/mL; Z: MIC of greater than 10 μg/mL)”. The “TIG MPC4 CTX-M-14 KP1005” value (KP1005 (CTX-M-14)) was “Y (MIC of 1 μg/mL to 10 μg/mL)”, the “TIG MPC4 CTX-M-15 KP1009” value (KP1009 (CTX-M-15)) was “X (MIC of less than 1 μg/mL)” and the “TIG MPC4 SHV-5 ec308” value (ec308 (SHV-5)) was “X (key: X: MIC of less than 1 μg/mL; Y: MIC of 1 μg/mL to 10 μg/mL; Z: MIC of greater than 10 μg/mL)”. For the same compound, the “TIG MPC4 SHV-12 KP1010” value (KP1010 (SHV-12)) was “X (key: X: MIC of less than 1 μg/mL; Y: MIC of 1 μg/mL to 10 μg/mL; Z: MIC of greater than 10 μg/mL)”, the “TIG MPC4 TEM-10 ec302” value (ec302 (TEM-10) [4]) was “Y (key: X: MIC of less than 1 ng/mL; Y: MIC of 1 μg/mL to 10 μg/mL; Z: MIC of greater than 10 μg/mL)” and the “TIG MPC4 ECL1002” value (ECL1002 [5]) was “X (MIC of less than 1 μg/mL)”. The “TIG MPC4 CMY-6 EC1010” value (EC1010 (CMY-6) [6]) was “X (MIC of less than 1 μg/mL)”, the Ki (CTX-M-14) was under 1 nM and the Ki (SHV-12) was under 1 nM. The Ki (KPC-2) was over 10 nM, the Ki (P99) was over 10 nM and the Ki (OXA-48) was 1 to 10 nM. For the same compound, the “% Monomer in 1 mg/mL salt solution” value [7] was 87.5%, the “BPM MPC1 KP1004 KPC-2” value (KP1004 (KPC-2)) was “X (MIC of less than 1 μg/mL)” and the “BPM MPC1 OXA-48 KP1086” value (KP1086 (OXA-48)) was “Z (MIC of greater than 10 μg/mL)”.

For `NC(=O)CC(=O)N[C@H]1Cc2ccc(F)c(C(=O)O)c2OB1O` [Compound 5, (R)-3-(3-amino-3-oxopropanamido)-7-fluoro-2-hydroxy-3,4-dihydro-2H-benzo[e][1,2]oxaborinine-8-carboxylic acid], the “AZT MPC4 TEM-10 ec302” value (ec302 (TEM-10) [1]) was “Y (MIC of 1 μg/mL to 10 μg/mL)”, the “AZT MPC4 ECL1002” value (ECL1002 [2]) was “Y (MIC of 1 μg/mL to 10 μg/mL)” and the “AZT MPC4 CMY-6 EC1010” value (EC1010 (CMY-6) [3]) was “Y (key: X: MIC of less than 1 ng/mL; Y: MIC of 1 μg/mL to 10 μg/mL; Z: MIC of greater than 10 μg/mL)”. The “TIG MPC4 CTX-M-14 KP1005” value (KP1005 (CTX-M-14)) was “Y (MIC of 1 μg/mL to 10 μg/mL)”, the “TIG MPC4 CTX-M-15 KP1009” value (KP1009 (CTX-M-15)) was “X (MIC of less than 1 μg/mL)” and the “TIG MPC4 SHV-5 ec308” value (ec308 (SHV-5)) was “X (key: X: MIC of less than 1 μg/mL; Y: MIC of 1 μg/mL to 10 μg/mL; Z: MIC of greater than 10 μg/mL)”. For the same compound, the “TIG MPC4 SHV-12 KP1010” value (KP1010 (SHV-12)) was “X (key: X: MIC of less than 1 μg/mL; Y: MIC of 1 μg/mL to 10 μg/mL; Z: MIC of greater than 10 μg/mL)”, the “TIG MPC4 TEM-10 ec302” value (ec302 (TEM-10) [4]) was “Z (key: X: MIC of less than 1 ng/mL; Y: MIC of 1 μg/mL to 10 μg/mL; Z: MIC of greater than 10 μg/mL)” and the “TIG MPC4 ECL1002” value (ECL1002 [5]) was “X (MIC of less than 1 μg/mL)”. The “TIG MPC4 CMY-6 EC1010” value (EC1010 (CMY-6) [6]) was “X (MIC of less than 1 μg/mL)”, the Ki (CTX-M-14) was under 1 nM and the Ki (SHV-12) was under 1 nM. It also gave a Ki (KPC-2) of over 10 nM, a Ki (P99) of over 10 nM and a Ki (Pa AmpC) of over 10 nM. For the same compound, the Ki (OXA-48) was under 1 nM, the “% Monomer in 1 mg/mL salt solution” value [7] was 98.5% and the “BPM MPC1 KP1004 KPC-2” value (KP1004 (KPC-2)) was “X (MIC of less than 1 μg/mL)”. The “BPM MPC1 OXA-48 KP1086” value (KP1086 (OXA-48)) was “Y (MIC of 1 μg/mL to 10 μg/mL)”.

For `CSCC(=O)N[C@H]1Cc2cc(F)c(F)c(C(=O)OCOC(=O)C(C)C)c2OB1O` [Compound 45, 2-methylpropanoyloxymethyl(3R)-6,7-difluoro-2-hydroxy-3-[(2-methylsulfanylacetyl)amino]-3,4-dihydro-1,2-benzoxaborinine-8-carboxylate], the “Conc. at t = 3 hr” value [8] was 580 ng/mL, the “Measured Initial Conc. in Serum” value ([9]; 37 degrees) was 18.6 µg/mL and the “Conc. at t = 1 hr” value ([9]; prodrug) was 8850 ng/mL. The “Conc. at t = 3 hr” value ([9]; prodrug) was 420 ng/mL, the “Measured Initial Conc. in Serum” value ([10]; 37 degrees) was 18.4 µg/mL and the “Conc. at t = 1 hr” value ([10]; prodrug) was 4830 ng/mL.
